Consider 3 compounds from patent publication US20170087174A1, “COMBINATION THERAPY REGIMEN FOR TREATMENT OF HCV” (JANSSEN PHARMACEUTICALS, INC., priority 2015, published 2017).

Molecules are shown by their SMILES.

One data set addresses T1, OATP1B3 (Homo sapiens, UniProt Q9NPD5).
T1 sequence (Q9NPD5 1-702): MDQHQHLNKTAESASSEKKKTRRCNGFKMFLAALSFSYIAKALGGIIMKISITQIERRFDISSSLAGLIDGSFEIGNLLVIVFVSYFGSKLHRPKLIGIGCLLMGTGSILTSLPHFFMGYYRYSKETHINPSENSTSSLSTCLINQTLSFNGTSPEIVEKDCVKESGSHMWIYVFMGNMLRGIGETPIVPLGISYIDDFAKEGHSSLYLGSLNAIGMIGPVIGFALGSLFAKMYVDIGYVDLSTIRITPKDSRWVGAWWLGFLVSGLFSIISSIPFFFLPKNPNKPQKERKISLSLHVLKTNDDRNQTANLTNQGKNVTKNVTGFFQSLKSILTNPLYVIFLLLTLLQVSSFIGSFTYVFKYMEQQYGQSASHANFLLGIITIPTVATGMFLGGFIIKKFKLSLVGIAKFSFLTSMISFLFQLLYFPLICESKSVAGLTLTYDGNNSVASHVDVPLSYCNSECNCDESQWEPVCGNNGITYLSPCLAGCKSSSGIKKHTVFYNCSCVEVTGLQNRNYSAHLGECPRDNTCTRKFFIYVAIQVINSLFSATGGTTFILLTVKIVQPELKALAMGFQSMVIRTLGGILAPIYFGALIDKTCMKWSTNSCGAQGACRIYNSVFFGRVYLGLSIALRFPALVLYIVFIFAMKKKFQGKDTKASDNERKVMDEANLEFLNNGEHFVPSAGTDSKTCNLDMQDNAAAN
The following applies: in vitro; cited from earlier work.

The nature of data set [1]: Phase 2a open-label combination study: pharmacokinetics (exposure). In kind it is in vivo, human. The protocol: A randomized, Phase 2a, open-label study was carried out to evaluate the safety, pharmacokinetics and efficacy of the combination of Compound (III), Odalasvir and Simeprevir in Genotype 1 treatment-naïve subjects with chronic hepatitis C. Other treatment-naïve subjects included Genotype 2, 3, 4, 5 and 6.
The aim of the study was to determine the efficacy, pharmacokinetics (PK), and safety of Compound (III)+Odalasvir±SMV in HCV-infected subjects.
This was an open-label study evaluating various dosing regimens of Compound (III)+Odalasvir±SMV for 6-8 weeks in treatment-naïve HCV-infected subjects with varying clinical characteristics (e.g., GT 1 or 3, presence/absence of compensated Child Pugh A cirrhosis). Efficacy, PK and safety evaluations were conducted during and through 24 weeks post dosing. Up to 15 cohorts were enrolled; data was generated from cohorts that have completed dosing.

In the next data set the target is T2, CYP2C8 (Homo sapiens, UniProt P10632).
T2 sequence (P10632 1-490): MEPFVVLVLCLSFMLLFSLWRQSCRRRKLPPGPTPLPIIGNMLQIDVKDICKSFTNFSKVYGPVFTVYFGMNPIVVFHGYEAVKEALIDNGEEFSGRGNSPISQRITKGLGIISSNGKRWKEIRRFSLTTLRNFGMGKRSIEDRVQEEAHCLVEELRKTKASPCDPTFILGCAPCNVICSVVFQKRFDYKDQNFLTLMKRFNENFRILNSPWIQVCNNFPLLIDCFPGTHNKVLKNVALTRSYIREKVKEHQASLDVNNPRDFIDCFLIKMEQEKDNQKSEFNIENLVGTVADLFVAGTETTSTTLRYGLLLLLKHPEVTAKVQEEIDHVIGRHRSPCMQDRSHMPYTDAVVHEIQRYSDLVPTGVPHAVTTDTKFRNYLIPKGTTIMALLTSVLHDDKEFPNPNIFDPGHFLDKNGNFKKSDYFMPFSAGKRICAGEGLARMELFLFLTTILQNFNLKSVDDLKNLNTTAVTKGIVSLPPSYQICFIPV
The data set can be described thus: CYP2C8 inhibition. The data set is classed as in vitro ADME. The following applies: up to 10 μM.

In a further data set the test system is CYP3A4/5. The data set can be described thus: CYP3A4/5 inhibition. In kind it is in vitro ADME. The following applies: up to 10 μM.
The next data set deals with T3, 1A2 (Homo sapiens, UniProt P05177).
T3 sequence (P05177 1-516): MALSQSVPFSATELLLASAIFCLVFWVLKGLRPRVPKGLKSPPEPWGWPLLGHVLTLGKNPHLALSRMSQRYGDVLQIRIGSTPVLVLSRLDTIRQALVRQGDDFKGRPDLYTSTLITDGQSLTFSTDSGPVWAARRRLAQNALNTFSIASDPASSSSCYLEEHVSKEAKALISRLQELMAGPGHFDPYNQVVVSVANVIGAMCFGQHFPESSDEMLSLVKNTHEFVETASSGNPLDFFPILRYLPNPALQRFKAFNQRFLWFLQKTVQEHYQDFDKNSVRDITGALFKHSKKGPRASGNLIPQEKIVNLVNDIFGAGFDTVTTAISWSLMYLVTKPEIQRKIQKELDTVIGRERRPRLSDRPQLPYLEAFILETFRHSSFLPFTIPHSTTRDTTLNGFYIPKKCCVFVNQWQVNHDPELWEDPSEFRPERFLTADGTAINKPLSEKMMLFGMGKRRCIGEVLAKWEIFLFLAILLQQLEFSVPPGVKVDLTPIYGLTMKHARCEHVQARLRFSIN
Kind of data set: CYP1A2 inhibition. In kind it is in vitro ADME. The following applies: up to 10 μM.

The target of another data set is MRP2 (Homo sapiens, UniProt Q92887). The following applies: in vitro, cited from earlier work.
A further data set deals with BSEP (Homo sapiens, UniProt O95342). The following applies: in vitro, cited from earlier work.
In a further data set the test system is CYP1A2. Kind of data set: CYP1A2 induction. The following applies: up to 10 μM. The data set is classed as in vitro ADME.
For another data set, the target named is T4, NTCP (Homo sapiens, UniProt Q14973).
T4 sequence (Q14973 1-349): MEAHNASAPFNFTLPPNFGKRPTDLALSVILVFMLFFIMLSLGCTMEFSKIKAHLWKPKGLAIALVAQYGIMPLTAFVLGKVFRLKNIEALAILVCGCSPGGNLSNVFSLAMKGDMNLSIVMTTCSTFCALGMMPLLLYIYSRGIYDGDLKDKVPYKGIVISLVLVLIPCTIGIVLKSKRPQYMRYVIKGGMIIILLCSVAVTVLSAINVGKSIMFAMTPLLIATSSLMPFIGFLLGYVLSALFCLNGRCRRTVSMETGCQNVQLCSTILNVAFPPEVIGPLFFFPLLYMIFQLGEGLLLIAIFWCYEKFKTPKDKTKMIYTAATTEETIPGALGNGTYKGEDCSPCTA
The following applies: in vitro; read-out: other OATPs NTCP inhibition IC50; cited from earlier work.

Data set [2] relates to Digoxin (a pgp-substrate). The following applies: SMV co-administered with Digoxin; cited from earlier work.

BSEP, sequence (O95342 whole entry): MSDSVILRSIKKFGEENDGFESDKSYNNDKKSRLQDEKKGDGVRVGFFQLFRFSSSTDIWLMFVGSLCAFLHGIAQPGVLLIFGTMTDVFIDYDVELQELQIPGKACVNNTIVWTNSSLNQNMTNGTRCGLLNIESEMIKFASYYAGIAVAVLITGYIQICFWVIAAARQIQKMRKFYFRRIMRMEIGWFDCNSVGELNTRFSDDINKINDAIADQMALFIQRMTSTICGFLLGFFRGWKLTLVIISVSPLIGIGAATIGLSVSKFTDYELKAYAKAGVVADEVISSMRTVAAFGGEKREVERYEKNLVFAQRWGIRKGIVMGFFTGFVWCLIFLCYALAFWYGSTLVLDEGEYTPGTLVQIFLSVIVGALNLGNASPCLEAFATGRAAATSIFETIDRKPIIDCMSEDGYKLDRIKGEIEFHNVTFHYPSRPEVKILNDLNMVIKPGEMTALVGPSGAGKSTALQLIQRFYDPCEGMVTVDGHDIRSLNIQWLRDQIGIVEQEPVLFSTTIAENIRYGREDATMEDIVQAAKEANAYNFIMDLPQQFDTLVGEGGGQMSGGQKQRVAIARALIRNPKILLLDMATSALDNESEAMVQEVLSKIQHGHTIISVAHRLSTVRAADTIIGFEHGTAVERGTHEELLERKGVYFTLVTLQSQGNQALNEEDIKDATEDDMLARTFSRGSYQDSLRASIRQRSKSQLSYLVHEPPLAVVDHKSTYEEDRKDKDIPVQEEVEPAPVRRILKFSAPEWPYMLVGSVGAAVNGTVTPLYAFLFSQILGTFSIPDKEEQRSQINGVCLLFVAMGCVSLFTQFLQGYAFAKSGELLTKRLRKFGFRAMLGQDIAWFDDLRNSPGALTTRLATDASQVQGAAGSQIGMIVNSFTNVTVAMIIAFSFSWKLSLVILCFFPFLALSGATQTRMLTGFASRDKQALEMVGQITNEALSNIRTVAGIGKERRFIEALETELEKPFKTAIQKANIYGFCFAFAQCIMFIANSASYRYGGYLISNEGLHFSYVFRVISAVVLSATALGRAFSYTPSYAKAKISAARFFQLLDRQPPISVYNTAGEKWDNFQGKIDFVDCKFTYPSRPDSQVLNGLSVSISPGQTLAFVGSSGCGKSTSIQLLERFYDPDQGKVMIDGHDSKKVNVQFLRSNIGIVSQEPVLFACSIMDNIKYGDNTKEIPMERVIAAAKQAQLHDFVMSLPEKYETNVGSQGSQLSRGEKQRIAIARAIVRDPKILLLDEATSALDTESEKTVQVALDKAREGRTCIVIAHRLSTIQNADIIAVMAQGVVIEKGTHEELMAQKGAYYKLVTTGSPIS
MRP2, sequence (Q92887 whole entry): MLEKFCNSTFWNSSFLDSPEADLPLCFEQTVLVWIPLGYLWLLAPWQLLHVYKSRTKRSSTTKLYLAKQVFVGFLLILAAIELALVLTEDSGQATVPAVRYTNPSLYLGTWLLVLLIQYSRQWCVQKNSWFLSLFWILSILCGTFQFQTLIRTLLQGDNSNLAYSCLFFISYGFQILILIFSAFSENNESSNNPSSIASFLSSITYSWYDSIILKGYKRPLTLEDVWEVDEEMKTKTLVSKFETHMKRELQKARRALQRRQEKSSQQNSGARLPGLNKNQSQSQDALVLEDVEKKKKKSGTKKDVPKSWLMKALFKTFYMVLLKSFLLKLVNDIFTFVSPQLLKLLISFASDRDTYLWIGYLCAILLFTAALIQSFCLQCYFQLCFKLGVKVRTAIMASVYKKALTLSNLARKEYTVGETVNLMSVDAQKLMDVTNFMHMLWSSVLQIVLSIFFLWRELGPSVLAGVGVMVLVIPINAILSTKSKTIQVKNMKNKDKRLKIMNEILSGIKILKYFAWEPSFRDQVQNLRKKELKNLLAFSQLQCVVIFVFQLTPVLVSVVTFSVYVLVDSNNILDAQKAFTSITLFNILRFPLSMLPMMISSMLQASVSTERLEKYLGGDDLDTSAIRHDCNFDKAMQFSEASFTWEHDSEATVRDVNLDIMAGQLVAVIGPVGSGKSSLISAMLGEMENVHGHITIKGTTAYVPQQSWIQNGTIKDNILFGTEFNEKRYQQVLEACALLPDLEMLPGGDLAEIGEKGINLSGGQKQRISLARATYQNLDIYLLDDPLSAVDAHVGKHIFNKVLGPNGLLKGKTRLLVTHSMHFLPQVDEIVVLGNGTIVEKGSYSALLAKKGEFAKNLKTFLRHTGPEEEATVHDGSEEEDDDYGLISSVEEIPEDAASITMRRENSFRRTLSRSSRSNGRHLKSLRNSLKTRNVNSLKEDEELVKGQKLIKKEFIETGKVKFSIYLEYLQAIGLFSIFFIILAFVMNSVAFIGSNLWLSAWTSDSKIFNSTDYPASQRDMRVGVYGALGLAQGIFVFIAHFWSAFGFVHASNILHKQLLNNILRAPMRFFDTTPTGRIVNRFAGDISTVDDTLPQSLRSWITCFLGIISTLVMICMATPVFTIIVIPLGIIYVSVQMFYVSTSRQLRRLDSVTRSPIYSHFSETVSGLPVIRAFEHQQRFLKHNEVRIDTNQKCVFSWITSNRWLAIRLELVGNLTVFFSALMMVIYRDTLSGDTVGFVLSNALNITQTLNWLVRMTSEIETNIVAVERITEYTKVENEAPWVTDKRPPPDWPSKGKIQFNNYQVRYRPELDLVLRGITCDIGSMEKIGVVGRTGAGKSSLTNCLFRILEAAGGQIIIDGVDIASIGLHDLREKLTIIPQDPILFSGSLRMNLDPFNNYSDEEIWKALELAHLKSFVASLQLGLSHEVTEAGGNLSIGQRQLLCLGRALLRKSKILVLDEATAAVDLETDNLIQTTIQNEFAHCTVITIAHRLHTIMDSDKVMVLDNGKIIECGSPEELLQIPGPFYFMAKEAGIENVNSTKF

Take `CC(C)OC(=O)[C@H](C)N[P@](=O)(OC[C@@]1(F)O[C@@H](n2ccc(=O)[nH]c2=O)[C@](C)(O)[C@@H]1O)Oc1ccccc1` [Compound (III), isopropyl ((S)-(((2S,3S,4R,5R)-5-(2,4-dioxo-3,4-dihydropyrimidin-1 (2H)-yl)-2-fluoro-3,4-dihydroxy-4-methyltetrahydrofuran-2-yl)methoxy)(phenoxy)phosphoryl)-L-alaninate]: at OATP1B3, the “OATP1B3 inhibition (in words)” value was “no in vitro inhibition”.

As for `COC(=O)N[C@H](C(=O)N1[C@H](c2nc3cc(-c4cc5ccc4CCc4ccc(c(-c6ccc7[nH]c([C@@H]8C[C@@H]9CCCC[C@@H]9N8C(=O)[C@@H](NC(=O)OC)C(C)C)nc7c6)c4)CC5)ccc3[nH]2)C[C@@H]2CCCC[C@@H]21)C(C)C` [ODV, Odalasvir], the “observed exposure versus anticipated” value in data set [1] (Cohort 1 / group (i)) is recorded as “higher than anticipated”. The “decrease of exposure with dosing frequency” value in data set [1] (reducing ODV dosing from QD to QOD) was “proportionally”. Further, the “effect on CYP2C8” value at CYP2C8 was “limited effect”. In addition, the “inhibition of CYP3A4/5” value with CYP3A4/5 is “no inhibition”. Besides, at 1A2, the “inhibition of 1A2” value is reported as “no inhibition”. Moreover, the “MRP2 inhibition (in words)” value on MRP2 was “no inhibition”. The “BSEP inhibition (in words)” value at BSEP was “no inhibition”. Besides, the “OATP1B3 inhibition (in words)” value on OATP1B3 is recorded as “no inhibition”.

In the case of `COc1ccc2c(O[C@@H]3C[C@H]4C(=O)N[C@]5(C(=O)NS(=O)(=O)C6CC6)C[C@H]5/C=C\CCCCN(C)C(=O)[C@@H]4C3)cc(-c3nc(C(C)C)cs3)nc2c1C` [SMV, Simeprevir, reference compound], the “decrease of exposure with dose” value in data set [1] (in vivo) is listed as “less than proportionally”. For the same compound, the “observed exposure versus anticipated” value in [1] (in vivo) is recorded as “higher than anticipated”. The “induction of CYP1A2” value in the data set on CYP1A2 was “no induction”. The “MRP2 inhibition (in words)” value at MRP2 was “strong/moderate”. Also, the IC50 at MRP2 (read-out: MRP2 inhibition IC50) was 6000 to 19000 nM; at BSEP (read-out: BSEP inhibition IC50) it was 1700 nM; at NTCP, 2200 nM. Also, the “BSEP inhibition (in words)” value at BSEP is reported as “strong/moderate”. Further, the “increase in exposure of Digoxin” value in data set [2] is listed as 35%.
